Values joined by “and” are separate entries in the source; they are usually repeats but may differ in a detail not shown here. Equal entries are not always repeated.
Legend:
[1] = system: type II diabetic mice C57BL/KsJ-db/db (BKS.Cg-Dock7m+/+Leprdb/JNju); assay: Acute hypoglycemic test in type II diabetic model mice; assay type: in vivo, mouse
Protocol: (§1) 50 six-week-old type II diabetic mice C57BL/KsJ-db/db (namely, S.Cg-Dock7^m+/+Lepr^db/JNju mouse) and 10 control mice C57BLKS/JNju are purchased from Nanjing Biomedical Research Institute of Nanjing University (certificate number: 201602819, and license number: SCXK (Su) 2015-0001). The mouse are fed in a SPF-grade animal house with a humidity of 40-60% at room temperature of 25° C. for 12 h each under light and dark conditions, and an experiment is carried out after adaptive feeding for one week. Blood glucose concentration is measured using a Roche Accu-Chek® Performa glucometer and blood glucose test paper. Experiment grouping and administration modes are seen in Table 1.
Blood glucose levels of each group of mouse are detected before administration. As shown in Table 2 and FIG. 7, blood glucose levels of a model group, Ex-4, EX-mhIgG1Fc and EX-L21K-mhIgG1Fc (5-20 nmol/kg) are respectively 24±0.81, 24.53±1.20, 23.31±1.05, 23.04±1.23, 22.41±1.51 and 24.99±1.43 mM. There is a significant difference (P<0.0001) compared with 8.58±0.25 mM in a normal control group. […] Moreover, there is no difference between the drug groups and the model group, and subsequent experiments can be carried out.
After mouse are administrated, blood glucose levels after administration for 1, 2, 4, 8, 12, 24, 36, 48, 60, 72, 96 and 120 h are continuously monitored. […] The blood glucoses of mouse in Ex-4 group are gradually raised back to a level before administration, and the blood glucoses of mouse in EX-mhIgG1Fc group are gradually raised back to a level before administration after administration for 48 h. The hypoglycemic effects of various dosage group of EX-L21K-mhIgG1Fc are more durable, wherein, the hypoglycemic effect of 5 nmol/kg EX-L21K-mhIgG1Fc lasts until 72 h after administration (P<0.01 vs model group), the hypoglycemic effects of 10 nmol/kg EX-L21K-mhIgG1Fc (P<0.01 vs model group) and 20 nmol/kg EX-L21K-mhIgG1Fc (P<0.0001 vs model group) are still present after administration for 96 h.
Compared with Ex-4, AUCs0-24 h of various groups of EX-mhIgG1Fc and EX-L21K-mhIgG1Fc (5-20 nmol/kg) drugs has no significant difference.

[2] = system: type II diabetic mice C57BL/KsJ-db/db (BKS.Cg-Dock7m+/+Leprdb/JNju); assay: Intraperitoneal glucose tolerance test (IPGTT); assay type: in vivo, mouse; conditions: for IPGTT glucose AUC0-180 min: n=8, mean ± SEM; for Fasting blood glucose vs model group: fasted 18 h, Ex-4 and EX-mhIgG1Fc 10 nmol/kg, EX-L21K-mhIgG1Fc 5-20 nmol/kg, ip, P<0.0001
Protocol: as §1
Various groups of animals are fasted overnight for 18 h before test. Firstly, normal saline, Ex-4, EX-mhIgG1Fc and EX-L21K-mhIgG1Fc are respectively intraperitoneally injected. After administration for 2 h, 1.5 g/kg glucose is intraperitoneally injected to each mouse, blood is taken via caudal vein, and blood glucose concentrations in −120, 0, 15, 30, 45, 60, 90, 120 and 180 min are recorded. During the test, animals are normally dieted and supplied with water.
Area under the curve is further applied for analysis.

[3] = cited from earlier work
[4] = 0 h (before administration), 10 nmol/kg ip, n=8, mean ± SEM
[5] = 1 h after administration, 10 nmol/kg ip
[6] = 2 h after administration, 10 nmol/kg ip
[7] = 4 h after administration, 10 nmol/kg ip
[8] = 8 h after administration, 10 nmol/kg ip
[9] = 12 h after administration, 10 nmol/kg ip
[10] = 24 h after administration, 10 nmol/kg ip
[11] = 36 h after administration, 10 nmol/kg ip
[12] = 48 h after administration, 10 nmol/kg ip
[13] = 60 h after administration, 10 nmol/kg ip
[14] = 72 h after administration, 10 nmol/kg ip
[15] = 96 h after administration, 10 nmol/kg ip
[16] = 120 h after administration, 10 nmol/kg ip
[17] = Ex-4 and EX-mhIgG1Fc 10 nmol/kg, EX-L21K-mhIgG1Fc 5-20 nmol/kg, ip
[18] = 10 nmol/kg ip 120 min before 1.5 g/kg glucose ip

Substance: Exendin-4 [Ex-4, reference compound]
- Blood glucose [1, 4]: 24.53 ± 1.20 mM and 24.53 mM
- Blood glucose AUC0-24 h ([1]; 10 nmol/kg ip, n=8, mean ± SEM): 374.46 ± 6.20 mM·h
- Blood glucose [1, 5]: 10.63 mM
- Blood glucose [1, 6]: 10.79 mM
- Blood glucose [1, 7]: 10.71 mM
- Blood glucose [1, 8]: 15.31 mM
- Blood glucose [1, 9]: 24.43 mM
- Blood glucose [1, 10]: 20.48 mM
- Blood glucose [1, 11]: 26.59 mM
- Blood glucose [1, 12]: 24.76 mM
- Blood glucose [1, 13]: 27.19 mM
- Blood glucose [1, 14]: 25.34 mM
- Blood glucose [1, 15]: 23.68 mM
- Blood glucose [1, 16]: 24.83 mM
- Blood glucose AUC0-72 h compared with model group [1, 17]: no significant change
- Blood glucose AUC0-120 h compared with model group [1, 17]: no significant change
- Time after administration at which hypoglycemic effect is exhibited [1, 17]: 1 h
- IPGTT glucose AUC0-180 min [2, 18]: 2058 ± 109.5 mM·min
- Fasting blood glucose vs model group [2]: significantly reduced
- in-vivo half-life period [3]: 3.3˜4 hours

Substance: EX-L21K-mhIgG1Fc: fusion protein of Exendin-4 mutant EX-L21K, Gly-rich linker peptide, optimally mutated human IgG1 hinge region and constant regions CH2 and CH3; SEQ ID NO: 11
- Blood glucose ([1]; 0 h (before administration), 5 nmol/kg ip, n=8, mean ± SEM): 23.04 ± 1.23 mM and 23.04 mM
- Blood glucose [1, 4]: 22.41 ± 1.51 mM and 22.41 mM
- Blood glucose ([1]; 0 h (before administration), 20 nmol/kg ip, n=8, mean ± SEM): 24.99 ± 1.43 mM and 24.99 mM
- Time after administration to which hypoglycemic effect lasts ([1]; 5 nmol/kg ip, P<0.01 vs model group): 72 h
- Blood glucose AUC0-24 h ([1]; 5 nmol/kg ip, n=8, mean ± SEM): 296.69 ± 34.39 mM·h
- Time after administration to which hypoglycemic effect lasts ([1]; 10 nmol/kg ip): ≥ 96 h
- Blood glucose AUC0-24 h ([1]; 10 nmol/kg ip, n=8, mean ± SEM): 237.34 ± 16.87 mM·h
- Time after administration to which hypoglycemic effect lasts ([1]; 20 nmol/kg ip, P<0.0001 vs model group): ≥ 96 h
- Blood glucose AUC0-24 h ([1]; 20 nmol/kg ip, n=8, mean ± SEM): 230.80 ± 20.09 mM·h
- Time after administration to which hypoglycemic effect lasts ([1]; 5-20 nmol/kg ip): 96 h
- Blood glucose ([1]; 1 h after administration, 5 nmol/kg ip): 15.18 mM
- Blood glucose [1, 5]: 15.2 mM
- Blood glucose ([1]; 1 h after administration, 20 nmol/kg ip): 14.98 mM
- Blood glucose ([1]; 2 h after administration, 5 nmol/kg ip): 11.28 mM
- Blood glucose [1, 6]: 14.3 mM
- Blood glucose ([1]; 2 h after administration, 20 nmol/kg ip): 12.46 mM
- Blood glucose ([1]; 4 h after administration, 5 nmol/kg ip): 9.16 mM
- Blood glucose [1, 7]: 8.48 mM
- Blood glucose ([1]; 4 h after administration, 20 nmol/kg ip): 9.54 mM
- Blood glucose ([1]; 8 h after administration, 5 nmol/kg ip): 9.91 mM
- Blood glucose [1, 8]: 8.01 mM
- Blood glucose ([1]; 8 h after administration, 20 nmol/kg ip): 8.73 mM
- Blood glucose ([1]; 12 h after administration, 5 nmol/kg ip): 13.06 mM
- Blood glucose [1, 9]: 10.13 mM
- Blood glucose ([1]; 12 h after administration, 20 nmol/kg ip): 53 mM
- Blood glucose ([1]; 24 h after administration, 5 nmol/kg ip): 13.58 mM
- Blood glucose [1, 10]: 8.5 mM
- Blood glucose ([1]; 24 h after administration, 20 nmol/kg ip): 7.49 mM
- Blood glucose ([1]; 36 h after administration, 5 nmol/kg ip): 17.34 mM
- Blood glucose [1, 11]: 12.9 mM
- Blood glucose ([1]; 36 h after administration, 20 nmol/kg ip): 11.95 mM
- Blood glucose ([1]; 48 h after administration, 5 nmol/kg ip): 16.46 mM
- Blood glucose [1, 12]: 12.96 mM
- Blood glucose ([1]; 48 h after administration, 20 nmol/kg ip): 12.2 mM
- Blood glucose ([1]; 60 h after administration, 5 nmol/kg ip): 22.39 mM
- Blood glucose [1, 13]: 21.36 mM
- Blood glucose ([1]; 60 h after administration, 20 nmol/kg ip): 21.5 mM
- Blood glucose ([1]; 72 h after administration, 5 nmol/kg ip): 18.85 mM
- Blood glucose [1, 14]: 17.4 mM
- Blood glucose ([1]; 72 h after administration, 20 nmol/kg ip): 14.1 mM
- Blood glucose ([1]; 96 h after administration, 5 nmol/kg ip): 18.71 mM
- Blood glucose [1, 15]: 17.33 mM
- Blood glucose ([1]; 96 h after administration, 20 nmol/kg ip): 14.46 mM
- Blood glucose ([1]; 120 h after administration, 5 nmol/kg ip): 23.35 mM
- Blood glucose [1, 16]: 22.96 mM
- Blood glucose ([1]; 120 h after administration, 20 nmol/kg ip): 22.76 mM
- Blood glucose AUC0-72 h compared with model group [1, 17]: significantly reduced
- Blood glucose AUC0-120 h compared with model group [1, 17]: significantly reduced
- IPGTT glucose AUC0-180 min ([2]; 5 nmol/kg ip 120 min before 1.5 g/kg glucose ip): 2338 ± 181.2 mM·min
- IPGTT glucose AUC0-180 min [2, 18]: 2035 ± 169.6 mM·min
- IPGTT glucose AUC0-180 min ([2]; 20 nmol/kg ip 120 min before 1.5 g/kg glucose ip): 2082 ± 119.9 mM·min
- Fasting blood glucose vs model group [2]: significantly reduced

Reference: US11078250B2, “High-activity long-acting hypoglycemic fusion protein as well as preparation method and medical application thereof” (China Pharmaceutical University, priority 2016, dated 2021)
